# Reference: patent EP2642290A1, “Glatiramer acetate human monocytic cell line-based potency assay” (Synthon BV, priority 2012, dated 2013)
# Several values for one entry are separate records, joined by “and”; a condition that tells them apart may be missing. Identical values can stand only once.
# Tests used:
# THP-1 cells [1] = experiment: Human monocytic cell line-based potency assay: sIL-1Ra expression (ELISA) in THP-1 cells stimulated with PMA and LPS and exposed to glatiramer acetate
# Method: Human monocytic cells are brought into a suitable medium, e.g. RPMI 1640 medium, and are stimulated with an effective amount of PMA and LPS, contacted with GA (0-250 μg/ml) and the effect on the expression of a monocyte anti-inflammatory cytokine, such as sIL-1Ra, is measured. […] Dose-response curves are generated by GA activation of monocytic cells and EC50 values are calculated using a non-linear four-parameter logistic model on semi-log transformed data, as described in the draft USP chapter <1034> on analysis of biological assays.
# • THP-1 cells are harvested and centrifugated at 200g for 5 minutes; • Resuspend the pellet in 10 ml fresh pre-warmed RPMI-1640+10% FBS+2mM L-Glutamine; • Take a sample for cell counting; • After cell count adjust the cell density to 5 x 10^5 cells/ml and add 100 μl of the THP-1 cell suspension to the wells of a 96-wellsplate (Corning Costar #3596); • Fill the boundary wells of the plate with CGM and place the plate temporally into a humidified incubator at 37 ± 1 °C and 5.0 ± 1% CO2.
# • In the dilution plate prepare the glatiramer acetate dilution series. The stock concentration is 20 mg/ml, which needs to be diluted in a 96-wellsplate to a working stock concentration of 1.2 mg/ml for the highest dilution on the dilution plate; • Pipette 75 μl RPMI-1640+10% FBS in column 2-8 (row B-G) of the dilution plate and pipette 235 μl RPMI-1640+10% FBS in column 9 (row B-G). Note: Other wells of the dilution 96-wellsplate remain unused; • Add 15 μl of reference glatiramer acetate and the test sample of glatiramer acetate (20 mg/ml) into column 9 (row B-G) of the dilution plate, giving a new concentration of 1.2 mg/ml; • Serially dilute 150 μl down, from column 9 to 2. Mix at each step by pipetting up and down 5 times; • Add 50 μl of the LPS/PMA working solution to the cell plate, with exception of the boundary wells.The final concentrations are 25 ng/ml LPS and 5 ng/ml PMA; • Add 50 μl of the glatiramer acetate dilutions to the plate containing the cells and the LPS and PMA working solution. The final dose-range of glatiramer acetate is between 12.5 and 250 μg/ml; • Incubate cells for 72 hours at 37°C in an incubator with 5% CO2, 93% humidity.
# • After 72 hours of incubation centrifuge the 96-well plate at 200g for 5 minutes. • Transfer 150 μl of the cell-free supernatant/well to a storage plate. • Supernatant of the samples will be used for analysis by IL-1Ra/Il-1F3 ELISA. • sIL-1Ra is determined using the sIL-1Ra ELISA kit from Quantikine, R&D, Minneapolis, MN (Cat # DRAOOB) following the manufacturer's instructions. The remainder of the supernatant is stored in a closed storage plate at -80°C.
# Data on sIL-1Ra concentration are analyzed for relative potency as described in draft USP chapter <1034> section 3.4 on nonlinear models for quantitative responses. The software package GraphPad Prism (5.x) is used for fitting to a nonlinear model to the data: • sIL-1Ra data (in pg/ml) are plotted against the log transformed glatiramer acetate concentration (in log μg/ml); • A four-parameter logistic model is constructed to fit the dose response curves of the Reference (Ref) and the test batch (TA). […]
# THP-1 cells [2] = experiment: as above; conditions: THP-1 cells treated with PMA alone or LPS alone instead of the combination
substance,measurement,setting,value
glatiramer acetate,Bottom,"THP-1 cells [1]; bottom asymptote of constrained four-parameter logistic fit of sIL-1Ra response (sIL-1Ra data in pg/ml), 5 ng/ml PMA and 25 ng/ml LPS, 72 hours, four independent curves A-D of the same material, common value",-4031
same,Relative potency (%),"THP-1 cells [1]; relative to curve A, arbitrarily set at 100%, all curves are 100% samples of the same material, curves A-D",100.0% and 128.5% and 118.5% and 107.7%
same,EC50,"THP-1 cells [1]; sIL-1Ra response, glatiramer acetate concentration in μg/ml, 5 ng/ml PMA and 25 ng/ml LPS, 72 hours, four independent curves A-D of the same material, in µg/mL",42.05 and 54.02 and 49.84 and 45.28
same,Slope,"THP-1 cells [1]; slope of constrained four-parameter logistic fit of sIL-1Ra response, 5 ng/ml PMA and 25 ng/ml LPS, curves A-D, common value",3.306
same,Top,"THP-1 cells [1]; top asymptote of constrained four-parameter logistic fit of sIL-1Ra response (sIL-1Ra data in pg/ml), 5 ng/ml PMA and 25 ng/ml LPS, 72 hours, curves A-D, common value",53602
same,GA-induced cytokine expression,THP-1 cells [2],neither PMA nor LPS treatment of THP-1 cells alone results in GA-induced cytokine expression
